Measured values from US11746116B2, “Antibiotic resistance breakers” (KING'S COLLEGE LONDON, priority 2017, dated 2023).
≈ marks a conversion by molar mass, not a printed value. Where “and” joins values, the source holds several entries; their conditions need not be identical. Equal values may be shown once.

Key:
[1] = thigh infection study, treated groups, relative to day of infection
[2] = tested on: Staphylococcus aureus ATCC29213; assay: Murine thigh infection model, thigh bacterial burden; type: in vivo; details: neutropenic mice; for Log10 reduction from vehicle control / Thigh bacterial burden, Group Geometric mean / Thigh bacterial burden, Log10 Group Geometric mean: 8 h, 14 h post-infection, 18 h post infection; for decrease of thigh bacterial burden compared to vehicle group: 8 h and 14 h post infection, burden 18 h post infection
[3] = mouse, in vivo
[4] = Single dose pharmacokinetics study, intravenous route; details: 5 mg/kg
[5] = molecular target: Safetyscreen44 off target panel (Homo sapiens, UniProt P29274)
[6] = molecular target: Safetyscreen44 off target panel (Homo sapiens, UniProt P46098)
[7] = molecular target: Safetyscreen44 off target panel (Homo sapiens, UniProt P07550)
[8] = molecular target: Safetyscreen44 off target panel (Homo sapiens, UniProt P21554)
[9] = molecular target: Safetyscreen44 off target panel (Rattus norvegicus, UniProt P28564)
[10] = molecular target: Safetyscreen44 off target panel (Homo sapiens, UniProt P31645)
[11] = molecular target: Safetyscreen44 off target panel (Homo sapiens, UniProt P23219)
[12] = molecular target: Safetyscreen44 off target panel (Homo sapiens, UniProt P41143)
[13] = molecular target: Safetyscreen44 off target panel (Homo sapiens, UniProt P08172)
[14] = molecular target: Safetyscreen44 off target panel (Homo sapiens, UniProt P34972)
[15] = molecular target: Safetyscreen44 off target panel (Homo sapiens, UniProt P08908)
[16] = molecular target: Safetyscreen44 off target panel (Homo sapiens, UniProt P35367)
[17] = molecular target: Safetyscreen44 off target panel (Homo sapiens, UniProt Q01959)
[18] = molecular target: Safetyscreen44 off target panel (Rattus norvegicus, UniProt P34975)
[19] = molecular target: Safetyscreen44 off target panel (Homo sapiens, UniProt P23975)
[20] = molecular target: Safetyscreen44 off target panel (Homo sapiens, UniProt P06239)
[21] = molecular target: Safetyscreen44 off target panel (Homo sapiens, UniProt P04150)
[22] = molecular target: Safetyscreen44 off target panel (Homo sapiens, UniProt P25021)
[23] = molecular target: Safetyscreen44 off target panel (Homo sapiens, UniProt Q12809); assay: Safetyscreen44, potential off target toxicity (Table 27)
[24] = tested on: M6; assay: MIC, microdilution broth method; type: cell-based
[25] = tested on: EMRSA16; assay: MIC, microdilution broth method; type: cell-based, Staphylococcus aureus; details: for MIC, EMRSA16: in µg/mL
[26] = tested on: AYE; assay: MIC, microdilution broth method; type: cell-based, Acinetobacter baumannii
[27] = tested on: Ab17978; assay: MIC, microdilution broth method; type: cell-based
[28] = tested on: PA01; assay: MIC, microdilution broth method; type: cell-based, Pseudomonas aeruginosa
[29] = tested on: multidrug resistant strains; assay: Reserpine growth assay in several multidrug resistant strains (FIG. 27); type: cell-based; details: compared to ML-83-009 or levofloxacin
Procedure: Reserpine was added at a final concentration of 10 μg/mL (made up at 40 μg/mL in TSB, 50 μL per well). The bacteria were added at an OD of 0.01 in TSB (100 μL/well). The plate was a normal clear plate as used for MICs. OD was read every 30 minutes for 9 hours (the literature states 7 hours, but this is strain-dependent).

[30] = tested on: EMRSA15; assay: MIC, microdilution broth method; type: cell-based, Staphylococcus aureus
[31] = tested on: KP13368; assay: MIC, microdilution broth method; type: cell-based
[32] = tested on: VSE775; assay: MIC, microdilution broth method; type: cell-based, Enterococcus faecalis; set-up: MIC, VSE775: unit not given beside the values
[33] = tested on: MSSA9144; assay: MIC, microdilution broth method; type: cell-based, Staphylococcus aureus
[34] = tested on: VRE12201; assay: MIC, microdilution broth method; type: cell-based, Enterococcus faecalis
[35] = Male CD1 mouse, blood, Composite Mean
[36] = male, CD-1 (ICR), mouse, in vivo
[37] = ESKAPE panel, Gram-negative, in µg/mL
[38] = ESKAPE panel, Gram-positive, in µg/mL

Sequence of Safetyscreen44 off target panel (Homo sapiens, UniProt P23219) (P23219 24-599): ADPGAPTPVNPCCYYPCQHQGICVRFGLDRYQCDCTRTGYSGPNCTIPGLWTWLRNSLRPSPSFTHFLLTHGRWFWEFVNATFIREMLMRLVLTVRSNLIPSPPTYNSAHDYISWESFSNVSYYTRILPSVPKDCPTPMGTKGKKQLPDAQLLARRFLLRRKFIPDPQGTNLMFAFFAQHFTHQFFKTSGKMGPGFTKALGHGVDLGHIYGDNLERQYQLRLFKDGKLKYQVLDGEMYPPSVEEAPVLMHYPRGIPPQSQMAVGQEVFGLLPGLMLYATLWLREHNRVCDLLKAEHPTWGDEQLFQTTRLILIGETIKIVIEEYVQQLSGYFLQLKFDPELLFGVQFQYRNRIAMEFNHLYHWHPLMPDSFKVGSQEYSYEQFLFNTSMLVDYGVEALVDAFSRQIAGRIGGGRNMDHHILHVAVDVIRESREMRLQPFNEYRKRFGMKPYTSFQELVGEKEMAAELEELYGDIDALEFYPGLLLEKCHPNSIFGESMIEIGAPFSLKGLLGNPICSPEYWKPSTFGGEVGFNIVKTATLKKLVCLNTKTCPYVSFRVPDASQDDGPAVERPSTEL
Sequence of Safetyscreen44 off target panel (Homo sapiens, UniProt P04150) (P04150 whole entry): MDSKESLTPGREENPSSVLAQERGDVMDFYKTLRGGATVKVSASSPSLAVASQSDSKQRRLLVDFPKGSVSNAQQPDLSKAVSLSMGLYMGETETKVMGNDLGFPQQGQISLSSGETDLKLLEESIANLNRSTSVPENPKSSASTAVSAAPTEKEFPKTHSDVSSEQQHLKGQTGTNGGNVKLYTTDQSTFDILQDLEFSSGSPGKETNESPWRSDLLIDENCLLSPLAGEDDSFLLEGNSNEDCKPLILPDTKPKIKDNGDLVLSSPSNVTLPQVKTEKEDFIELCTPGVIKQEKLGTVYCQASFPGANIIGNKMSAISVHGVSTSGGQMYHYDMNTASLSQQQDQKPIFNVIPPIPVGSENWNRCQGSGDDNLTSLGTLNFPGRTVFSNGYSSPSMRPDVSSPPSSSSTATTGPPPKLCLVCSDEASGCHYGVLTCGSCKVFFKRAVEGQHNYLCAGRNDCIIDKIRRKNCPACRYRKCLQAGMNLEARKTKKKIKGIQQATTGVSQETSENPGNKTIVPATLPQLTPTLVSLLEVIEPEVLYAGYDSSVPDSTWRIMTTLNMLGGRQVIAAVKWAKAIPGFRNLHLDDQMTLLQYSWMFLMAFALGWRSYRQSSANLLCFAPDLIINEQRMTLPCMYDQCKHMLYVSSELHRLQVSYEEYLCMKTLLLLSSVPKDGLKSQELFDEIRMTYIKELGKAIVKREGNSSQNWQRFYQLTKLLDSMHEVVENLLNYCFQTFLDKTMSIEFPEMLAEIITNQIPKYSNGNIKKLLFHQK
Sequence of Safetyscreen44 off target panel (Homo sapiens, UniProt P21554) (P21554 whole entry): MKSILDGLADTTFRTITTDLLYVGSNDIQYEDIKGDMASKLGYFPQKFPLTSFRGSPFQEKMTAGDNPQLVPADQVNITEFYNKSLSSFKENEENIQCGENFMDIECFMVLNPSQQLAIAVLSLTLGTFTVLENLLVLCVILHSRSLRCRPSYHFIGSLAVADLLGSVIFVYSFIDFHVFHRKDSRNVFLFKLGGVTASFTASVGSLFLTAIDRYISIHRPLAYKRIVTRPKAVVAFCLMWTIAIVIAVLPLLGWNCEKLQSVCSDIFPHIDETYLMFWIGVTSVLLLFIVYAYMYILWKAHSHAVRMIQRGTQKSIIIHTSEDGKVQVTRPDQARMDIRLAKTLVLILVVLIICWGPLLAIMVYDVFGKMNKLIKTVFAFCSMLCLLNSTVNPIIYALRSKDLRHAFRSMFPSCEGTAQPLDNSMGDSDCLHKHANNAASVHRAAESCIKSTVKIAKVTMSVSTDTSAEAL
Sequence of Safetyscreen44 off target panel (Homo sapiens, UniProt P41143) (P41143 whole entry): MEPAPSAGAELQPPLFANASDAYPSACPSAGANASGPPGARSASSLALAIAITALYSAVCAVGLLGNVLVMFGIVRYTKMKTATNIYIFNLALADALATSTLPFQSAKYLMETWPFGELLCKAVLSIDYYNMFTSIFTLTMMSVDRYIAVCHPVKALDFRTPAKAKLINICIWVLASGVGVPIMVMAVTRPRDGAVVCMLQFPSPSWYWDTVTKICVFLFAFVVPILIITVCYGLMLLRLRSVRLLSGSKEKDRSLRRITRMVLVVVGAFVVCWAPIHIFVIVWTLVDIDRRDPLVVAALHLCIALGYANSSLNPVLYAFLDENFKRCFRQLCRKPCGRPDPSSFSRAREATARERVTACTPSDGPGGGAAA
Sequence of Safetyscreen44 off target panel (Homo sapiens, UniProt Q12809) (Q12809 whole entry): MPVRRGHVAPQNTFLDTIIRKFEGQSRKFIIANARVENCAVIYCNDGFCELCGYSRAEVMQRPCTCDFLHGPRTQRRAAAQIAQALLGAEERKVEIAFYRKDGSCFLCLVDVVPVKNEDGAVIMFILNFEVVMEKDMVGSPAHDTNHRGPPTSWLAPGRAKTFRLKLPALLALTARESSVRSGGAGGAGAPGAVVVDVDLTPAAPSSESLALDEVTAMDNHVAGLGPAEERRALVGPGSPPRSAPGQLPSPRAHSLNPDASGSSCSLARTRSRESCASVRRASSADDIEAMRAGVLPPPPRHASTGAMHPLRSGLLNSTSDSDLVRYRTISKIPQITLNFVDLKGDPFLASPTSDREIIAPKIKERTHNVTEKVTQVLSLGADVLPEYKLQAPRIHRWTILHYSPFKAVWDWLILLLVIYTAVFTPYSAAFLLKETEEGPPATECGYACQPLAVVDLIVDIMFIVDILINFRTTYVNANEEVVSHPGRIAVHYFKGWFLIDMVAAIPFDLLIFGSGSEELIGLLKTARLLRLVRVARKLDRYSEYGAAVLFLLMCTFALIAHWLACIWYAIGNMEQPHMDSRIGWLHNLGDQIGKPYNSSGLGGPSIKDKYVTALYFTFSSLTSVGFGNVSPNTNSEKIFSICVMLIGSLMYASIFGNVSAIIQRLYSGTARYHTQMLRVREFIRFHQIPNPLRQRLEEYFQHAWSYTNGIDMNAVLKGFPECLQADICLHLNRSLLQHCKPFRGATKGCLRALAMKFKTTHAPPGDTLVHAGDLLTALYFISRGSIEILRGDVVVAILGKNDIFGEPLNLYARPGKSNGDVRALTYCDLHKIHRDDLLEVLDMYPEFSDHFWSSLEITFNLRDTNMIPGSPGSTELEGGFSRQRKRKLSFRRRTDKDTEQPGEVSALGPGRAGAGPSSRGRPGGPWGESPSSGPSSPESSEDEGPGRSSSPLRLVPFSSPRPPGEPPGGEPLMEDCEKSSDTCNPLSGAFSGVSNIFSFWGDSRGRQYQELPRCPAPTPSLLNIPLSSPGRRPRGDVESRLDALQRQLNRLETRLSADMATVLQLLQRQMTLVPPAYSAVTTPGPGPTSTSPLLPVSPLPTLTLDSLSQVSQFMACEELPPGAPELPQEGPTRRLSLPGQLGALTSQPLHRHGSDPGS
Sequence of Safetyscreen44 off target panel (Homo sapiens, UniProt P35367) (P35367 whole entry): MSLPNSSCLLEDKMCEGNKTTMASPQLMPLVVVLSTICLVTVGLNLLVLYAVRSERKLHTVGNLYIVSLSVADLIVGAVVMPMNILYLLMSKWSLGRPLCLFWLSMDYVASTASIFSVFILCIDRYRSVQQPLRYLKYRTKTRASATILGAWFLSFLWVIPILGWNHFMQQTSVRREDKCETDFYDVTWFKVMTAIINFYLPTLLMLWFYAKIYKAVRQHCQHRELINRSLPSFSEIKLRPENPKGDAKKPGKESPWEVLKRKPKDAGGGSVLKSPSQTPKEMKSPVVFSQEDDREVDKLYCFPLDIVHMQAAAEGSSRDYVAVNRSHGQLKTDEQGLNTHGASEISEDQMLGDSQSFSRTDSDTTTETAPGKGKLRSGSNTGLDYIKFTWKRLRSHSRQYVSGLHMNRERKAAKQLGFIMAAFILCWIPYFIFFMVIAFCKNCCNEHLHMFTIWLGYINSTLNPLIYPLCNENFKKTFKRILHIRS
Sequence of Safetyscreen44 off target panel (Homo sapiens, UniProt P25021) (P25021 whole entry): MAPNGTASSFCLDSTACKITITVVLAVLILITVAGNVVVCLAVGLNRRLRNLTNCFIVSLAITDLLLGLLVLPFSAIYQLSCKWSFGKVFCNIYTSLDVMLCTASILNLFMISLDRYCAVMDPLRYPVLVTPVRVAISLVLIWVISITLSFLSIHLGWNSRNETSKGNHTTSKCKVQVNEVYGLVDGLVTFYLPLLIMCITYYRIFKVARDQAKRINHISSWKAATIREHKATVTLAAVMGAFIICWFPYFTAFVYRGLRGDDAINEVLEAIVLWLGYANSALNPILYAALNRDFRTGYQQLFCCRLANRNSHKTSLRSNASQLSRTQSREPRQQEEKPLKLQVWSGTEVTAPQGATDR
Sequence of Safetyscreen44 off target panel (Homo sapiens, UniProt P06239) (P06239 whole entry): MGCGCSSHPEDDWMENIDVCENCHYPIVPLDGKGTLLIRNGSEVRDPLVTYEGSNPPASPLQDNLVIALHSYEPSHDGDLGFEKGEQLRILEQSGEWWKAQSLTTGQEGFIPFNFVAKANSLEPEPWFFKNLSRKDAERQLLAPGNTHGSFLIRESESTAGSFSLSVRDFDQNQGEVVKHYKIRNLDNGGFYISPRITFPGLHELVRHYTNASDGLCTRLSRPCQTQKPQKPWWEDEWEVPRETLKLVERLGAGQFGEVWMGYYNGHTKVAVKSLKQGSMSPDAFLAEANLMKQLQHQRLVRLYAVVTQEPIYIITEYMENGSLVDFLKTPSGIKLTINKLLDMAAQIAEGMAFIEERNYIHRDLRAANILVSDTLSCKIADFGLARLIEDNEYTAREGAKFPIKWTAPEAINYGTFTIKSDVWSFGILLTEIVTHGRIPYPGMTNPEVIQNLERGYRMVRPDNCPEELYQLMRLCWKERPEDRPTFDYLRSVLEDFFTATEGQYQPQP

C[C@H]1COc2c(N3CC[C@@H](Nc4ncccn4)C3)c(F)cc3c(=O)c(C(=O)O)cn1c23 [KSN-82-L22]
body weights following infection [1]: slightly increased
Log10 reduction from vehicle control ([2]; 20 mg/kg PO at 2 h): 5.00 log10 CFU/g
Thigh bacterial burden, Group Geometric mean ([2]; 20 mg/kg PO at 2 h): 2.01 × 10^3 cfu/g
Thigh bacterial burden, Log10 Group Geometric mean ([2]; 20 mg/kg PO at 2 h): 3.30 log10 cfu/g
Log10 reduction from vehicle control ([2]; 50 mg/kg PO at 2 h): 5.16 log10 CFU/g
Thigh bacterial burden, Group Geometric mean ([2]; 50 mg/kg PO at 2 h): 1.37 × 10^3 cfu/g
Thigh bacterial burden, Log10 Group Geometric mean ([2]; 50 mg/kg PO at 2 h): 3.14 log10 cfu/g
decrease of thigh bacterial burden compared to vehicle group ([2]; 20 mg/kg/dose oral at 2 h, 20 mg/kg): 5 log10 CFU/g and > 5 log10 CFU/g
decrease of thigh bacterial burden compared to vehicle group ([2]; 50 mg/kg/dose oral at 2 h, 50 mg/kg): 5.16 log10 CFU/g and > 5 log10 CFU/g
Bioavailability Using AUCinf ([3]; male, CD-1 (ICR)): 49-3%
Bioavailability Using AUCo.t ([3]; male, CD-1 (ICR)): 32.0%
AUGinf ([3]; male, CD-1 (ICR), po, 20 mg/kg): 13203 ng·h/mL
T½ ([3]; po, 20 mg/kg): 5-1 h
Blood CL [4, 35]: 12.5 mL/min/kg
Clast [4, 35]: 286 ng/mL
AUC [4, 36]: 6420 ng·h/mL and 15.1 µM·h
AUC(0-inf) [4, 36]: 15.7 µM·h
Cmax [4, 36]: 9390 ng/mL and 22.1 µM
MRT [4, 36]: 1.8 h
half-life [4, 36]: 36 min
% inhibition, A2A (h) (agonist radioligand) [5]: 53.628%
% inhibition, 5-HT3 (h) (antagonist radioligand) [6]: −4.708%
% inhibition, beta 2 (h) (antagonist radioligand) [7]: 11.3086%
% inhibition, CB1 (h) (agonist radioligand) [8]: 1.857%
% inhibition, 5-HT1B (antagonist radioligand) [9]: −16.7063%
% inhibition, 5-HT transporter (h) (antagonist radioligand) [10]: −16.9663%
% inhibition, COX1 (h) [11]: 30.3185%
% inhibition, delta (DOP) (h) (agonist radioligand) [12]: 2.159%
% inhibition, M2 (h) (antagonist radioligand) [13]: 1.066%
% inhibition, CB2 (h) (agonist radioligand) [14]: 0%
% inhibition, 5-HT1A(h) (agonist radioligand) [15]: −3.77%
% inhibition, H1 (h) (antagonist radioligand) [16]: 5.564%
% inhibition, dopamine transporter (h) (antagonist radioligand) [17]: 10.0257%
% inhibition, kappa (KOP) (agonist radioligand) [18]: 27.3513%
% inhibition, norepinephrine transporter (h) (antagonist radioligand) [19]: −6.471%
% inhibition, Lck kinase (h) [20]: −2.891%
% inhibition, GR (h) (agonist radioligand) [21]: 3.456%
% inhibition, H2 (h) (antagonist radioligand) [22]: −40.1709%
% inhibition, Potassium Channel hERG (human)-[3H] Dofetilide [23]: −0.2461%

Cc1cc(C)nc(N[C@@H]2CCN(c3c(F)cc4c(=O)c(C(=O)O)cn5c4c3OC[C@@H]5C)C2)n1 [KSN-BL7, (S)-10-((R)-3-((4,6-dimethylpyrimidin-2-yl)amino)pyrrolidin-1-yl)-9-fluoro-3-methyl-7-oxo-2,3-dihydro-7H-[1,4]oxazino[2,3,4-ij]quinoline-6-carboxylic acid]
MIC, M6 [24, 37]: 2
MIC ([24]; Klebsiella pneumoniae): 2 µg/mL (≈ 4.41 µM)
MIC, EMRSA16 ([25]; EMRSA16 (Table 16, role of the terminal pyrimidine ring)): 0.25-0.5
MIC, EMRSA16 ([25]; ESKAPE panel, Gram-positive): 0.25
MIC ([25]; Staphylococcus aureus): 0.25 µg/mL (≈ 0.551 µM)
MIC ([26]; Acinetobacter baumannii): 8 µg/mL (≈ 17.6 µM)
MIC, AYE [26, 37]: 8
MIC ([27]; Acinetobacter baumannii): ≤ 0.125 µg/mL
MIC, Ab17978 [27, 37]: ≤0.125
MIC, PA01 [28, 37]: 8
MIC ([28]; Pseudomonas aeruginosa): 8 µg/mL (≈ 17.6 µM)
efflux from the bacteria (reserpine growth assay) [29]: reduced efflux
MIC, EMRSA15 ([30]; EMRSA15 (Table 16, role of the terminal pyrimidine ring), in µg/mL): 0.125-0.25
MIC, EMRSA15 ([30]; ESKAPE panel, Gram-positive): 0.125-
MIC ([30]; Staphylococcus aureus): 0.125 µg/mL (≈ 0.276 µM)
MIC, KP13368 ([31]; ESKAPE panel, Gram-negative): 16 µg/mL (≈ 35.3 µM)
MIC ([31]; Klebsiella pneumoniae): 16 µg/mL (≈ 35.3 µM)
MIC, VSE775 ([32]; ESKAPE panel, Gram-positive): 0.0625
MIC ([32]; Enterococcus faecalis): 0.06 µg/mL (≈ 0.132 µM)
MIC, MSSA9144 [33, 38]: ≤0.0039
MIC ([33]; Staphylococcus aureus): ≤ 3.9 ng/mL
MIC, VRE12201 [34, 38]: 0.0313
MIC ([34]; Enterococcus faecalis): 0.03 µg/mL (≈ 0.0662 µM)
